Source: the NIST ThermoML archive (doi:10.1021/je700321s)

Assay: xn = mol fraction of the nth substance listed
Details: Liquid, Vibrating tube method

CC(C)O [propan-2-ol] + O=C=O
Details | mass density [kg/m3]
323.05 K, 7910 kPa, x2 = 0.6086 | 781.7
323.05 K, 8002 kPa, x2 = 0.139 | 777.6
323.05 K, 8009 kPa, x2 = 0.6086 | 782.2
323.05 K, 8208 kPa, x2 = 0.6086 | 783.1
323.05 K, 8404 kPa, x2 = 0.6086 | 784.1
323.05 K, 8527 kPa, x2 = 0.139 | 778.3
323.05 K, 8528 kPa, x2 = 0.9715 | 303.9
323.05 K, 8607 kPa, x2 = 0.6086 | 785
323.05 K, 8800 kPa, x2 = 0.6086 | 785.8
323.05 K, 9004 kPa, x2 = 0.6086 | 786.7
323.05 K, 9031 kPa, x2 = 0.9715 | 381.9
323.05 K, 9033 kPa, x2 = 0.139 | 778.8
323.05 K, 9107 kPa, x2 = 0.9492 | 526.2
323.05 K, 9301 kPa, x2 = 0.6086 | 788
323.05 K, 9400 kPa, x2 = 0.9492 | 575.3
323.05 K, 9501 kPa, x2 = 0.6086 | 788.9
323.05 K, 9519 kPa, x2 = 0.139 | 779.4
323.05 K, 9535 kPa, x2 = 0.9715 | 467.3
323.05 K, 9702 kPa, x2 = 0.6086 | 789.8
323.05 K, 9710 kPa, x2 = 0.9492 | 607
323.05 K, 9805 kPa, x2 = 0.6086 | 790.2
323.05 K, 10015 kPa, x2 = 0.9492 | 628.2
323.05 K, 10046 kPa, x2 = 0.9715 | 540
323.05 K, 10301 kPa, x2 = 0.9492 | 644.3
323.05 K, 10501 kPa, x2 = 0.9715 | 577.6
323.05 K, 10600 kPa, x2 = 0.9492 | 658.2
323.05 K, 10904 kPa, x2 = 0.9492 | 670.3
323.05 K, 11011 kPa, x2 = 0.9715 | 612.9
323.05 K, 11211 kPa, x2 = 0.9492 | 681.1
323.05 K, 11508 kPa, x2 = 0.9492 | 689.9
323.05 K, 11512 kPa, x2 = 0.9715 | 638.9
323.05 K, 11807 kPa, x2 = 0.9492 | 698.3
323.05 K, 12028 kPa, x2 = 0.9715 | 660.4
323.05 K, 12106 kPa, x2 = 0.9492 | 705.9
323.05 K, 12404 kPa, x2 = 0.9492 | 712.6
323.05 K, 12516 kPa, x2 = 0.9715 | 677
323.05 K, 12703 kPa, x2 = 0.9492 | 719.2
323.05 K, 13006 kPa, x2 = 0.9492 | 725.5
323.05 K, 13014 kPa, x2 = 0.9715 | 691.5
323.05 K, 13309 kPa, x2 = 0.9492 | 731.4
323.05 K, 13558 kPa, x2 = 0.9715 | 705.3
323.05 K, 13608 kPa, x2 = 0.9492 | 736.7
323.05 K, 13907 kPa, x2 = 0.9492 | 742
323.05 K, 14003 kPa, x2 = 0.9715 | 715.4
323.05 K, 14210 kPa, x2 = 0.9492 | 746.8
323.05 K, 14504 kPa, x2 = 0.9492 | 751.1
323.05 K, 14516 kPa, x2 = 0.9715 | 725.9
323.05 K, 14804 kPa, x2 = 0.9492 | 755.1
323.05 K, 15024 kPa, x2 = 0.9715 | 735.4
323.05 K, 15506 kPa, x2 = 0.9715 | 743.6
323.06 K, 8724 kPa, x2 = 0.7943 | 745.3
323.06 K, 8802 kPa, x2 = 0.7943 | 746.6
323.06 K, 8905 kPa, x2 = 0.7943 | 747.9
323.06 K, 9005 kPa, x2 = 0.7943 | 749.2
323.06 K, 9204 kPa, x2 = 0.7943 | 751.6
323.06 K, 9410 kPa, x2 = 0.7943 | 753.9
323.06 K, 9606 kPa, x2 = 0.7943 | 756.2
323.06 K, 9792 kPa, x2 = 0.7943 | 758.2
323.06 K, 10001 kPa, x2 = 0.7943 | 760.2
323.06 K, 10310 kPa, x2 = 0.7943 | 763.1
323.07 K, 4004 kPa, x2 = 0.2003 | 775.4
323.07 K, 4307 kPa, x2 = 0.2003 | 775.8
323.07 K, 4497 kPa, x2 = 0.2003 | 776.1
323.07 K, 4802 kPa, x2 = 0.2003 | 776.6
323.07 K, 5014 kPa, x2 = 0.2003 | 776.9
323.07 K, 5510 kPa, x2 = 0.2003 | 777.5
323.07 K, 6029 kPa, x2 = 0.2003 | 778.3
323.07 K, 6513 kPa, x2 = 0.2003 | 779
323.07 K, 7000 kPa, x2 = 0.2003 | 779.7
323.07 K, 7519 kPa, x2 = 0.2003 | 780.5
323.07 K, 8013 kPa, x2 = 0.2003 | 781.1
323.07 K, 8543 kPa, x2 = 0.2003 | 781.8
323.07 K, 9139 kPa, x2 = 0.2003 | 782.5
323.07 K, 9497 kPa, x2 = 0.2003 | 783
323.07 K, 10068 kPa, x2 = 0.2003 | 783.8
332.97 K, 9739 kPa, x2 = 0.7943 | 686.8
332.97 K, 9804 kPa, x2 = 0.7943 | 689.2
332.97 K, 9901 kPa, x2 = 0.7943 | 691.4
332.97 K, 10001 kPa, x2 = 0.7943 | 693.5
332.97 K, 10101 kPa, x2 = 0.7943 | 695.6
332.97 K, 10201 kPa, x2 = 0.7943 | 697.8
332.97 K, 10302 kPa, x2 = 0.7943 | 699.9
332.97 K, 10404 kPa, x2 = 0.7943 | 701.7
332.97 K, 10507 kPa, x2 = 0.7943 | 703.7
332.97 K, 10606 kPa, x2 = 0.7943 | 705.4
332.97 K, 10808 kPa, x2 = 0.7943 | 708.9
332.97 K, 11007 kPa, x2 = 0.7943 | 712
332.97 K, 11204 kPa, x2 = 0.7943 | 715
332.97 K, 11404 kPa, x2 = 0.7943 | 717.8
332.97 K, 11607 kPa, x2 = 0.7943 | 720.5
332.97 K, 11805 kPa, x2 = 0.7943 | 722.9
332.97 K, 12004 kPa, x2 = 0.7943 | 725.3
332.99 K, 2861 kPa, x2 = 0.139 | 759.8
332.99 K, 3000 kPa, x2 = 0.139 | 760
332.99 K, 3297 kPa, x2 = 0.139 | 760.4
332.99 K, 3495 kPa, x2 = 0.139 | 760.7
332.99 K, 4008 kPa, x2 = 0.139 | 761.5
332.99 K, 4509 kPa, x2 = 0.139 | 762.2
332.99 K, 5030 kPa, x2 = 0.139 | 762.8
332.99 K, 6502 kPa, x2 = 0.139 | 764.9
332.99 K, 7005 kPa, x2 = 0.139 | 765.6
332.99 K, 7501 kPa, x2 = 0.139 | 766.3
332.99 K, 8010 kPa, x2 = 0.139 | 766.9
332.99 K, 8521 kPa, x2 = 0.139 | 767.6
332.99 K, 9040 kPa, x2 = 0.139 | 768.3
332.99 K, 9511 kPa, x2 = 0.139 | 768.8
332.99 K, 9974 kPa, x2 = 0.139 | 769.5
332.99 K, 10561 kPa, x2 = 0.9492 | 502.4
332.99 K, 10601 kPa, x2 = 0.9492 | 506.6
332.99 K, 10709 kPa, x2 = 0.9492 | 517.4
332.99 K, 10810 kPa, x2 = 0.9492 | 526.9
332.99 K, 10910 kPa, x2 = 0.9492 | 536.2
332.99 K, 11209 kPa, x2 = 0.9492 | 560.9
332.99 K, 11503 kPa, x2 = 0.9492 | 580
332.99 K, 11803 kPa, x2 = 0.9492 | 596
332.99 K, 12102 kPa, x2 = 0.9492 | 611.4
332.99 K, 12404 kPa, x2 = 0.9492 | 624.7
332.99 K, 12705 kPa, x2 = 0.9492 | 635.9
332.99 K, 13010 kPa, x2 = 0.9492 | 645.6
332.99 K, 13302 kPa, x2 = 0.9492 | 654.5
332.99 K, 13603 kPa, x2 = 0.9492 | 663.6
332.99 K, 13906 kPa, x2 = 0.9492 | 671.7
332.99 K, 14213 kPa, x2 = 0.9492 | 678.9
332.99 K, 14513 kPa, x2 = 0.9492 | 684.7
333.02 K, 7301 kPa, x2 = 0.4248 | 770.1
333.02 K, 7408 kPa, x2 = 0.4248 | 770.5
333.02 K, 7506 kPa, x2 = 0.4248 | 770.6
333.02 K, 7613 kPa, x2 = 0.4248 | 771
333.02 K, 7806 kPa, x2 = 0.4248 | 771.4
333.02 K, 8005 kPa, x2 = 0.4248 | 772
333.02 K, 8209 kPa, x2 = 0.4248 | 772.6
333.02 K, 8226 kPa, x2 = 0.6086 | 753.6
